Test results from US4260599A, “Antifibrotic substance P-1894B” (Takeda Chemical Industries, Ltd., priority 1978, dated 1981).

Key:
[1] = Carbon tetrachloride-induced hepatic cirrhosis: body weight; assay type: in vivo, Sprague-Dawley rats; conditions: 4 weeks
Method: (§1) Female Sprangue-Dawley rats weighing approximately 110 g each were divided into 4 groups. Group I (control) received saline (1 ml/rat) and Groups II, III and IV received 10% CCl4 -olive oil mixture (1 ml/rat) intraperitoneally twice weekly for a total 8 doses. Groups III and IV received P-1894B orally with food for 4 weeks. Average doses of P-1894B in Groups III and IV were 3.25 and 6.16 mg/kg/day, respectively. The rats were sacrificed a day after the last injection and the livers were immediately removed for the assays.

[2] = target: T1, protocollagen proline hydroxylase (Gallus gallus, UniProt P16924); assay: Protocollagen proline hydroxylase inhibitor activity; assay type: biochemical; conditions: partially purified enzyme from chick embryos; substrate (Pro-Pro-Gly)5.4H2O
T1 construct: partially purified enzyme preparation obtained from chick embryos; from tissue; host or cells: chick embryos
T1 sequence (P16924 1-516): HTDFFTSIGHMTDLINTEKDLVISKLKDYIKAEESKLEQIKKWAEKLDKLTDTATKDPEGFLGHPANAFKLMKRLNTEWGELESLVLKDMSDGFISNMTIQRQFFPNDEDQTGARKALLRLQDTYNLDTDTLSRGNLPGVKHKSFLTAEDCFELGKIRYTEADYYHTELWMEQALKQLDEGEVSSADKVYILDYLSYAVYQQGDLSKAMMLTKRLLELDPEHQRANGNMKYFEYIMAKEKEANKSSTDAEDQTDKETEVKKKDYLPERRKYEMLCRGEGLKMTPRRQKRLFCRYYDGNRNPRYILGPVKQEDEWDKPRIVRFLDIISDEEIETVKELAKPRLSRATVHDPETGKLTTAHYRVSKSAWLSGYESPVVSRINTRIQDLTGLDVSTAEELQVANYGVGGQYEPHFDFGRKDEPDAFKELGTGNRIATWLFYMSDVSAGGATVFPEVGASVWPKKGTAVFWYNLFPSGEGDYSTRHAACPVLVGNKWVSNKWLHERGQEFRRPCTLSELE
T1 sequence (P09102 23-515 partner): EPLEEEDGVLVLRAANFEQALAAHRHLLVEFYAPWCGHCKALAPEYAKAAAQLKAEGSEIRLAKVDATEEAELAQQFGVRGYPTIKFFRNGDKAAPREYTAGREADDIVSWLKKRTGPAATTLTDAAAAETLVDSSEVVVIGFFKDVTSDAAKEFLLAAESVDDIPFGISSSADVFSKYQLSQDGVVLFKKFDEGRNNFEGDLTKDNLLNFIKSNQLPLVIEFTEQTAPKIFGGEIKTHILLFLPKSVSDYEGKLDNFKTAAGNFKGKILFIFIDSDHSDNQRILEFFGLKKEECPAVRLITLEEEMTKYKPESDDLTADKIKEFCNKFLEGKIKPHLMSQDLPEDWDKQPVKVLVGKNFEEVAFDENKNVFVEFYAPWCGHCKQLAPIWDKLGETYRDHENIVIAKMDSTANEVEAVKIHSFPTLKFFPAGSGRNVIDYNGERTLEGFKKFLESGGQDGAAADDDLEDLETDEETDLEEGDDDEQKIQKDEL

[3] = system: protocollagen proline hydroxylase; assay: Carbon tetrachloride-induced hepatic cirrhosis: protocollagen proline hydroxylase activity in the liver; assay type: in vivo, Sprague-Dawley rats; conditions: for Protocollagen proline hydroxylase: liver, 4 weeks, CCl4 group 504 ± 87
Method: as §1
A 10% homogenate of the liver was prepared in 20 mM Tris-HCl buffer, pH 7.5, containing 0.2 M NaCl, 0.1 M glycine, 5×10^-5 M 1,4-dithiothreitol and 0.1% Triton (polyethylene glycol p-isooctylphenyl ether) X-100 using a Polytron homogenizer. The homogenate was centrifuged at 15,000 g for 20 min and the clear supernatant was assayed for proline hydroxylase activity by the method of Hutton et al [Anal. Biochem. 16, 384-394 (1966)]. The protein content of the homogenate was measured by the method of Lowry et al [J. Biol. Chem. 193, 265-275 (1951)] using bovine serum albumin as the standard.

[4] = system: hydroxyproline content of the liver (collagen biosynthesis); assay: Carbon tetrachloride-induced hepatic cirrhosis: hydroxyproline content of the liver; assay type: in vivo, Sprague-Dawley rats; conditions: for Hydroxyproline: liver, 4 weeks, CCl4 group 145.8 ± 18.3
Method: as §1
Hydroxyproline content of the liver was measured in 6 N HCl hydrolysate (110° C., 22h) by the method of Blumenkrantz et al [Anal. Biochem. 63, 331-340 (1975)].

[5] = Body weight of rats in the uterus collagen test; assay type: in vivo, Sprague-Dawley rats; conditions: 0.3 mg/kg i.p. once daily for 6 days + 17β-estradiol (5 μg); groups of 4 rats
Method: (§2) Basically in accordance with a procedure described by R. A. Salvador et al [Arch. Biochem. Biophys. 174, 382 (1976)], 0.3 mg/kg was intraperitoneally administered to Sprague-Dawley rats (female, 3 weeks old) once daily for 6 days and the amounts of collagen and non-collagenous proteins in the uteri were compared with the figures for control.

[6] = system: collagen biosynthesis (uterus); assay: Collagen biosynthesis inhibiting activity in uteri of 17β-estradiol-treated rats; assay type: in vivo, Sprague-Dawley rats
Method: as §2

[7] = pKa by titrimetry; assay type: physicochemical; conditions: in 66.7% aqueous DMF
[8] = Solubility; assay type: physicochemical
[9] = 6.16 mg/kg/day, p.o., compared to livers of CCl4-fibrotic rats
[10] = CCl4 + P-1894B 3.25 mg/kg/day orally with food
[11] = CCl4 + P-1894B 6.16 mg/kg/day orally with food, P<0.05 vs CCl4, n=5
[12] = 0.3 mg/kg i.p. once daily for 6 days + 17β-estradiol (5 μg)

C[C@@H]1O[C@@H](O[C@H]2CC[C@H](O[C@H]3[C@H](O)C[C@H](c4ccc5c(c4O)C(=O)C4=C(C5=O)[C@@]5(O)C(=O)C[C@](C)(O[C@H]6CC[C@H](O[C@H]7C=CC(=O)[C@H](C)O7)[C@H](C)O6)C[C@@]5(O)C=C4)O[C@@H]3C)O[C@H]2C)C=CC1=O [P-1894B]
weight, final ([1]; CCl4 + P-1894B 3.25 mg/kg/day orally with food, initial 112 ± 9): 199 ± 19 g
weight, final ([1]; CCl4 + P-1894B 6.16 mg/kg/day orally with food, initial 111 ± 5): 198 ± 9 g
concentration required for a 50% inhibition of 100 μg (as protein) of partially purified enzyme [2]: about 7 μg/ml
specific activity of protocollagen proline hydroxylase in the liver (in words) [3, 9]: significantly decreased
Protocollagen proline hydroxylase [3, 10]: 457 ± 68 dpm/mg of protein
Protocollagen proline hydroxylase [3, 11]: 357 ± 15 dpm/mg of protein
hydroxyproline content in the liver (in words) [4, 9]: significantly decreased
Hydroxyproline [4, 10]: 132.4 ± 29.6 μg/100 mg of protein
Hydroxyproline [4, 11]: 122.6 ± 14.0 μg/100 mg of protein
Body weight of rats [5]: 72 ± 5 g
inhibition of the biosynthesis of collagen (in words) ([6]; 0.3 mg/kg i.p. once daily for 6 days): inhibited the biosynthesis of collagen specifically and significantly
% Inhibition, Collagen [6, 12]: 78%
% Inhibition, Non-collagenous protein [6, 12]: -21%
Non-collagenous protein in uterus ([6]; 0.3 mg/kg i.p. once daily for 6 days + 17β-estradiol (5 μg), = total protein - collagen, control (2) 24.21 ± 7.21): 26.99 ± 4.67 mg
Collagen in uterus ([6]; 0.3 mg/kg i.p. once daily for 6 days + 17β-estradiol (5 μg), groups of 4 rats, control (2) 4.39 ± 0.16, p < 0.01 vs control (2)): 3.41 ± 0.22 mg
Total protein of uterus ([6]; 0.3 mg/kg i.p. once daily for 6 days + 17β-estradiol (5 μg), groups of 4 rats, control (2) 28.6 ± 7.3): 30.4 ± 5.0 mg
PKa [7]: 10.15
Solubility ([8]; in chloroform, dioxane, ethyl acetate, dimethylsulfoxide, acetone, methyl ethyl ketone, pyridine, methanol, ethanol, benzene, toluene, diethyl ether and 0.1 N NaOH): Readily soluble or soluble
Solubility ([8]; in petroleum ether, n-hexane and cyclohexane): sparingly soluble or insoluble
